Target: Proto-oncogene tyrosine-protein kinase Src (c-Src)
Assay: The kinase reaction was initiated with the incubation of the 2.5 µL of the reaction cocktail (0.7 nM of His6-Src kinase domain in kinase buffer) with 2.5 µL of prediluted compounds (dissolved in 10% DMSO, 4X target concentration) for 10 min at room temperature. The reaction cocktail contained 200 mM HEPES (pH 7.5), 16 mM MgC
Conditions: not given

`CC(C)n1cc(C(=O)c2cc(O)ccc2O)ccc1=O` [5-(2,5-Dihydroxybenzoyl)-1-isopropylpyridin-2(1H)-one (40)] and `CC(C)n1cc(C(=O)c2ccccc2O)ccc1=O` [5-(2-Hydroxybenzoyl)-1-isopropylpyridin-2(1H)-one (29)] are within 1.5-fold of each other in IC50: 26.1 µM for the first, 21.8 µM for the second.

Going from `CC(C)(C)OC(=O)NCCn1cc(C(=O)c2ccc(O)cc2O)ccc1=O` [t-Butyl [2-{5-(2,4-dihydroxybenzoyl)-2-oxopyridin-1(2H)-yl}ethyl]carbamate (33)] to `COc1ccc(C(=O)c2ccc(=O)n(CCNC(=O)OC(C)(C)C)c2)c(O)c1` [t-Butyl [2-{5-(2-hydroxy-4-methoxybenzoyl)-2-oxopyridin-1(2H)-yl}ethyl]carbamate (37)], the IC50 falls from 57.8 µM to 27.6 µM (2.1-fold).

`CCCCCCn1cc(C(=O)c2ccc(O)cc2O)ccc1=O` [5-(2,4-Dihydroxybenzoyl)-1-hexylpyridin-2(1H)-one (32)] and `CCCCCCn1cc(C(=O)c2cc(O)ccc2O)ccc1=O` [5-(2,5-Dihydroxybenzoyl)-1-hexylpyridin-2(1H)-one (39)] are within 1.5-fold of each other in IC50: 27.7 µM for the first, 22.1 µM for the second.

`CCCCCCn1cc(C(=O)c2ccccc2O)ccc1=O` [1-Hexyl-5-(2-hydroxybenzoyl)pyridin-2(1H)-one (28)] and `CCCCCCn1cc(C(=O)c2cc(OC)ccc2O)ccc1=O` [1-Hexyl-5-(2-hydroxy-5-methoxybenzoyl)pyridin-2(1H)-one (41)] are within 1.5-fold of each other in IC50: 28.1 µM for the first, 23.5 µM for the second.

Compared with `CN(C)CCn1cc(C(=O)c2ccccc2O)ccc1=O` [1-[2-(Dimethylamino)ethyl]-5-(2-hydroxybenzoyl)pyridin-2(1H)-one (31)], `COc1ccc(C(=O)c2ccc(=O)n(CCN(C)C)c2)c(O)c1` [1-[2-(Dimethylamino)ethyl]-5-(2-hydroxy-4-methoxybenzoyl) pyridin-2(1H)-one (36)] is 2.3-fold lower in IC50: 28.2 µM for the first, 12.5 µM for the second. The second is the more potent here.

Compared with `COc1ccc(C(=O)c2ccc(=O)n(CCO)c2)c(O)c1` [5-(2-Hydroxy-4-methoxybenzoyl)-1-(2-hydroxyethyl)pyridin-2(1H)-one (38)], `CCCCCCn1cc(C(=O)c2ccc(OC)cc2O)ccc1=O` [1-Hexyl-5-(2-hydroxy-4-methoxybenzoyl)pyridin-2(1H)-one (34)] is 1.7-fold higher in IC50: 19.9 µM for the first, 34.1 µM for the second.

`O=c1ccc(/C(=N\C2CCCCC2)c2ccccc2O)cn1C1CCCCC1` [(E)-1-Cyclohexyl-5-[(cyclohexylimino)(2-hydroxyphenyl)methyl]pyridin-2(1H)-one (45)] and `O=C(c1ccc(=O)n(C2CCCCC2)c1)c1ccccc1O` [1-Cyclohexyl-5-(2-hydroxybenzoyl)pyridin-2(1H)-one (30)] are within 1.5-fold of each other in IC50: 20.1 µM for the first, 25.4 µM for the second.

`CC(C)/N=C(\c1ccc(=O)n(C(C)C)c1)c1ccccc1O` [(E)-5-[(2-Hydroxyphenyl)(isopropylimino)methyl]-1-isopropylpyridin-2(1H)-one (44)] and `COc1ccc(C(=O)c2ccc(=O)n(C(C)C)c2)c(O)c1` [5-(2-Hydroxy-4-methoxybenzoyl)-1-isopropylpyridin-2(1H)-one (35)] are within 1.5-fold of each other in IC50: 37.9 µM for the first, 47 µM for the second.

`COc1ccc(O)c(C(=O)c2ccc(=O)n(CCNC(=O)OC(C)(C)C)c2)c1` [t-Butyl [2-{5-(2-hydroxy-5-methoxybenzoyl)-2-oxopyridin-1(2H)-yl}ethyl]carbamate (43)] and `COc1ccc(O)c(C(=O)c2ccc(=O)n(C3CCCCC3)c2)c1` [1-Cyclohexyl-5-(2-hydroxy-5-methoxybenzoyl)pyridin-2 (1H)-one (42)] are within 1.5-fold of each other in IC50: 21.9 µM for the first, 24.8 µM for the second.

Target: Mitogen-activated protein kinase 1 (Homo sapiens, UniProt P28482)
Assay: EGFR, MAPK and PDK Inhibitory Acitivity Assay
Conditions: pH 7
Experimental: (§1) EGFR was incubated with 8 mM MOPS (pH 7.0), 0.2 mM EDTA, 10 mM MnCl2, 0.1 mg/mL poly(Glu, Tyr) 4:1. MAPK1 was incubated with 25 mM Tris (pH 7.5), 0.02 mM EGTA, 250 µM substrate peptide (MAPK1-peptide), whereas PDK1 was incubated with 50 mM Tris (pH 7.5), 100 µM […] (PDKtide). The incubation was followed by the addition of 10 mM magnesium acetate and gamma-P33-ATP to each kinase. The kinase reactions were initiated with the addition of Mg:ATP mixture and stopped after 40 min of incubation with the addition of 3% phosphoric acid solution.

Chain of Mitogen-activated protein kinase 1 (P28482 whole entry): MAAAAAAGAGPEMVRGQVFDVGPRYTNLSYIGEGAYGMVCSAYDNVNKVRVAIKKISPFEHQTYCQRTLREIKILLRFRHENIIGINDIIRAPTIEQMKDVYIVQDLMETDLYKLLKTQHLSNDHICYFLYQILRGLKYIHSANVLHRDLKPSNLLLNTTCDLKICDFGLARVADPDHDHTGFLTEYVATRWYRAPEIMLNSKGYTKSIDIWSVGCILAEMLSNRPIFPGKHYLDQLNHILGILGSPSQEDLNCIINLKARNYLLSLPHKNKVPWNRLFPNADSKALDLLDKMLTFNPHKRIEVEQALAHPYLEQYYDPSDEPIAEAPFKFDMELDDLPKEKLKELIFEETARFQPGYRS

With `COc1ccc(C(=O)c2ccc(=O)n(CCN(C)C)c2)c(O)c1` [1-[2-(Dimethylamino)ethyl]-5-(2-hydroxy-4-methoxybenzoyl) pyridin-2(1H)-one (36)] the IC50 was greater than 300 µM.

Target: T1, 3-phosphoinositide-dependent protein kinase 1 (Homo sapiens, UniProt O15530)
T1 sequence (O15530 whole entry): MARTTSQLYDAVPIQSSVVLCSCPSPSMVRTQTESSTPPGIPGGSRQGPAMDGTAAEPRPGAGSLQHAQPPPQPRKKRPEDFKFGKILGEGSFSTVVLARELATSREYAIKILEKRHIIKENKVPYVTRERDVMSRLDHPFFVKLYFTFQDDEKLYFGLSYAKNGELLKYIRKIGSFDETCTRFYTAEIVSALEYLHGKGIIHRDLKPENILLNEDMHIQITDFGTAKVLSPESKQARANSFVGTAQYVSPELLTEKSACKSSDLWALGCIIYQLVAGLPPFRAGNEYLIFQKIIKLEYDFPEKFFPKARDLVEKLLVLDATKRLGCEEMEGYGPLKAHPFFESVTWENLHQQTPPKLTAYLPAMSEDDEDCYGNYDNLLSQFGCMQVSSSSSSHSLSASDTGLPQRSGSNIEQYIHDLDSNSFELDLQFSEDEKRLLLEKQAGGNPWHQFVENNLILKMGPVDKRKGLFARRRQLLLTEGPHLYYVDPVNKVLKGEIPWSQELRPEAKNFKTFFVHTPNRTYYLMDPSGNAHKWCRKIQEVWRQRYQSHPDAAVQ
Assay: EGFR, MAPK and PDK Inhibitory Acitivity Assay
Conditions: pH 7
Experimental: as §1

`COc1ccc(C(=O)c2ccc(=O)n(CCN(C)C)c2)c(O)c1` [1-[2-(Dimethylamino)ethyl]-5-(2-hydroxy-4-methoxybenzoyl) pyridin-2(1H)-one (36)] gave an IC50 greater than 300 µM.

Target: T2, Epidermal growth factor receptor [1-973] (Homo sapiens, UniProt P00533)
T2 construct: 1-973
Assay: EGFR, MAPK and PDK Inhibitory Acitivity Assay
Conditions: pH 7
Experimental: as §1

T2 sequence (P00533 1-973): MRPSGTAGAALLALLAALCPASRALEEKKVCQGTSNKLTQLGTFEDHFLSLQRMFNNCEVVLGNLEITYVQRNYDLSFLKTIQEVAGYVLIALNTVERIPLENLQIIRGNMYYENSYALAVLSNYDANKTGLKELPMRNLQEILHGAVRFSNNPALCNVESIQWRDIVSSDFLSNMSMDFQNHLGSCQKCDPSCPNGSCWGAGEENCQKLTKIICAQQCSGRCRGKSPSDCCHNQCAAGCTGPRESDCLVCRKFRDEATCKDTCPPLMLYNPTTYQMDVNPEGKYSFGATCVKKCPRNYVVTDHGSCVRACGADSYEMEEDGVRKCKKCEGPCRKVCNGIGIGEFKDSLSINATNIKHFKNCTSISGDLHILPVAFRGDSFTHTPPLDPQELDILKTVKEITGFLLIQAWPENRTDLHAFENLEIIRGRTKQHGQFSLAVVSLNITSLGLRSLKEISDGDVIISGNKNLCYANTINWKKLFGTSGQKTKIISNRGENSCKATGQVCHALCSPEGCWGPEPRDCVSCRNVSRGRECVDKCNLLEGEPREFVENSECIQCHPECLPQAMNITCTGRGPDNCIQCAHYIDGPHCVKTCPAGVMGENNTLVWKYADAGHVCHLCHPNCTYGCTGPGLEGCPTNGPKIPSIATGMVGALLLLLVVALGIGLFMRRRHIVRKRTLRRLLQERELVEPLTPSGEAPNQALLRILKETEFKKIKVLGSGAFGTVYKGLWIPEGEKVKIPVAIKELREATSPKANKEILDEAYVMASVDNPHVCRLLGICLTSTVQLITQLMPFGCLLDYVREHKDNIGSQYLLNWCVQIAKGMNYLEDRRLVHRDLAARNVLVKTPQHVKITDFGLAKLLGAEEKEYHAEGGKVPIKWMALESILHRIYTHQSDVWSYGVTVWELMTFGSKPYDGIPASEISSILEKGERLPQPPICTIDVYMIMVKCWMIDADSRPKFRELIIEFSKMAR

`COc1ccc(C(=O)c2ccc(=O)n(CCN(C)C)c2)c(O)c1` [1-[2-(Dimethylamino)ethyl]-5-(2-hydroxy-4-methoxybenzoyl) pyridin-2(1H)-one (36)] showed an IC50 greater than 300 µM.

Source: BindingDB's records for doi:10.1016/j.bioorg.2014.02.001 (University of Delhi, 2014)
